Tests used:
6-OHDA-lesioned rats = assay: Antidyskinetic effect of Eltoprazine in the rat 6-OHDA model (L-DOPA-induced dyskinesia, total AIM score); type: in vivo; details: for reduction of dyskinesia (total score: limb, axial and orolingual): compared to the control L-DOPA-only treated group, two-hour test
Experimental: In this experiment we determined the antidyskinetic properties of Eltoprazine.
6-OHDA-lesioned rats were made dyskinetic and allocated into three well-balanced groups (n=6 per group), which were challenge on the day of the experiments with L-DOPA-only, L-DOPA plus Eltoprazine 0.1 mg/kg or L-DOPA plus Eltoprazine 0.3 mg/kg, respectively.
Limb, axial and orolingual dyskinesias were scored over the tow-hour test and the sum is reported here as the total score, and the results are presented in FIG. 4.

PD patients = details: large phase III clinical trial, terminated; cited from earlier work

Structure (SMILES) | reduction of dyskinesia (total score: limb, axial and orolingual) (6-OHDA-lesioned rats; Eltoprazine 0.1 mg/kg plus L-DOPA) | reduction of dyskinesia (total score: limb, axial and orolingual) (6-OHDA-lesioned rats; Eltoprazine 0.3 mg/kg plus L-DOPA) | suppression of L-DOPA-induced dyskinesia (6-OHDA-lesioned rats; rats, higher dose alone) | clinical antidyskinetic efficacy (PD patients)
c1cc2c(c(N3CCNCC3)c1)OCCO2 [Eltoprazine, 1-(2,3-Dihydro-benzo[1,4]dioxin-5-yl)piperazine] | approximately 50% | near-complete abolishment | near-complete suppression | 
Fc1ccc(-c2cncc(CNC[C@H]3CCc4ccccc4O3)c2)cc1 [Sarizotan] |  |  |  | lack of efficacy
